Values of other authors, collected in patent US6107321A, “Diazabicyclooctane derivatives having selective 5-HT1Dalpha agonist activity” (Merck Sharp & Dohme Ltd., priority 1995, dated 2000).

Columns and labels:
[1] = system: human 5-HT1D.sbsb.α and 5-HT1D.sbsb.β receptor subtypes; details: cf. WO-A-91/17174, Table 1
humans = details: therapeutic doses

discrimination between the human 5-HT1Dα and 5-HT1Dβ receptor subtypes [1]: barely discriminates
SMILES: CNS(=O)(=O)Cc1ccc2[nH]cc(CCN(C)C)c2c1 [sumatriptan]
adverse cardiovascular events (humans): certain adverse cardiovascular events
